This note sets out measurements from patent US20230203471A1, “METHOD AND PLATFORM FOR DISRUPTING INTRACELLULAR MICROTUBULES” (National Tsing Hua University, priority 2021, published 2023).

The target in assay [1] is T1, spastin (Mus musculus, UniProt Q9QYY8, K308Q/K309Q/K310Q).
T1 construct: expressed in transfected cells; host or cells: HeLa (CCL-2)
T1 sequence (Q9QYY8 with tags, fused parts or gaps K308Q/K309Q/K310Q): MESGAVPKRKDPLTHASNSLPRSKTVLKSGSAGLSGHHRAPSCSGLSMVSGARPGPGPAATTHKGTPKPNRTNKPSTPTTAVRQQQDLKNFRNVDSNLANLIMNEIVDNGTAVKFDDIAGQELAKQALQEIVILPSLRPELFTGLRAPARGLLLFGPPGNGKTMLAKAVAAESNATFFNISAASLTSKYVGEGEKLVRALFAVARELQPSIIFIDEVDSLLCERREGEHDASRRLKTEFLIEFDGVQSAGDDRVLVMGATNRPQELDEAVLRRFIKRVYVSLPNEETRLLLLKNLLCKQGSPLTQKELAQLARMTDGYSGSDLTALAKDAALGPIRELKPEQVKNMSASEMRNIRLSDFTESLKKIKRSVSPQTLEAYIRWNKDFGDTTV
Nature of the assay: Reversal of MT disruption by spastin inhibition and MT regrowth in HeLa cells. The class given is cell-based. The note with it: spastazoline 10 µM added after 28 min rapamycin; dNSpastin3Q-YFP-FKBP and EMTB-CFP-FRB HeLa cells. On the procedure: FIGS. 2S to 2U show inhibition of spastin activity reverses MT disruption. In FIG. 2S, HeLa cells co-transfected with EMTB—CFP—FRB (black) and dNSpastin3Q-YFP-FKBP (green) were pre-treated with rapamycin for 28 min to induce acute MT disassembly; spastazoline (10 µM), a spastin inhibitor, was then added to the cultures to halt the MT disruption system; arrows indicate the centrosome-derived MTs; scale bar, 10 µm. […] Data (red) are shown as the mean ± SD. A Student’s t-test was performed to generate the indicated p-value.
Intriguingly, nascent MTs from the fragments derived from dNspastin3Q-mediated cleavage assembled at a polymerization rate of 0.92 ± 0.04 µm/sec, which was slightly slower than the regrowth rate of 1.17 ± 0.07 µm/sec for MTs from centrosomes (see FIG. 2U). […] In particular, microtubule filaments are composed of microtubule molecules. If they are only disassembled into microtubule molecules and the raw materials are still there, they would have the opportunity to quickly assemble them back. But if the microtubule molecules are degraded and the raw materials are gone, they can’t be quickly reassembled. In summary, rapid recruitment of dNSpastin3Q-YFP-FKBP onto MTs efficiently triggered MT disassembly in living cells upon dimerization induction.

The target of assay [2] is TagRFP-FRB-A1AY1 (Artificial Sequence). Nature of the assay: live-cell imaging, addition of rapamycin.
Assay [3] concerns tyrosinated MTs in COS7 cells. Nature of the assay: Targeting of TagRFP-FRB-A1AY1 and rapamycin-induced recruitment onto A1AY1-bound MTs. It counts as cell-based, African green monkey. On the procedure: (§1) The procedures of immunofluorescence staining are as follows. Cells cultured in borosilicate glass Lab-Tek eight-well chambers (Nunc) were fixed in 4% paraformaldehyde (Electron Microscopy Sciences) at room temperature for 15 min. Fixed cells were permeabilized with 0.1% Triton X-100 and then incubated in blocking solution (phosphate-buffered saline with 2% bovine serum albumin) for 30 min at room temperature. To label cytosolic MTs, primary ciliary membrane, and axonemal MTs, cells were incubated for 1 hr at room temperature with mouse antibody against α-tubulin (1:500; Sigma Aldrich, T6199), rabbit antibody against Arl13b (1:500; Proteintech, 17711-1-AP), mouse antibody against glutamylated tubulin (1:100; Adipogen, AG-20B-0020-C100), mouse antibody against acetylated tubulin (1:500; Sigma Aldrich, T7451), rat antibody against tyrosinated tubulin (1:100; Sigma Aldrich, MAB1864), and mouse antibody against detyrosinated tubulin (1:100; MERCK, AB3201) each of which was diluted in blocking solution. Cells were then washed with PBS and incubated for 1 hr with appropriate secondary antibodies (1:1000 dilution; Thermo Fisher) at room temperature.
MTs undergo various post-translational modification (PTMs) for spatiotemporally regulating their properties and functions. The inventors next turned efforts to precisely disrupt MTs with specific PTMs. […]

Assay [4] relates to EMTB-CFP-FRB-labeled MTs in HeLa cells. Nature of the assay: Rapamycin-induced translocation of FKBP-tagged proteins onto EMTB-CFP-FRB-labeled MTs (FRET, live-cell imaging). It counts as cell-based. The note with it: 100 nM rapamycin, FRET signal. As for the experimental part:
(§2) The procedures of live-cell imaging are as follows. Live transfected cells cultured on poly(d-lysine)-coated glass coverslips (Hecht Assistent) were treated with either 100 nM rapamycin for rapid induction of protein dimerization and translocation or MT-targeting agents (10 µM nocodazole or 500 µM colchicine) during imaging. Live-cell imaging was conducted on a Nikon T1 inverted fluorescence microscope (Nikon) with a 60× oil objective (Nikon), a Prime camera (Photometrics), and 37° C., 5% CO2 heat stage (Live Cell Instrument). Rapid recruitment of proteins of interest (POIs) was imaged at 5- or 10-sec intervals, whereas the process of MT disruption was imaged at 1-min intervals. Images were obtained using Nikon NIS-Elements AR software and processed with Huygens Deconvolution Software (Scientific Volume Imaging). Image analysis was mainly performed with Nikon NIS-Elements AR software.
FIGS. 1B and 1C show the MT-binding domain of ensconsin-cyan fluorescent protein-FKBP-rapamycin binding domain (EMTB—CFP—FRB) localizes to cytosolic MTs. […] Scale bar, 10 µm. […] Subsequently, the addition of rapamycin to HeLa cells led to the rapid translocation of yellow fluorescent protein-tagged FKBP (YFP—FKBP) onto EMTB—CFP—FRB-labeled MTs as evidenced by an increased FRET (fluorescence resonance energy transfer) signal on MTs (T½ of translocation: 5.73 ± 0.54 sec; FIGS. 1D and 1E). […]

The test system of assay [5] is cytosolic MTs in HeLa cells. Nature of the assay: Immunofluorescence staining of α-tubulin in HeLa cells expressing spastin constructs. The class given is cell-based. The settings on record: HeLa cells co-transfected with EMTB-CFP-FRB. As for the experimental part:
as §1
Spastin is a MT-cleaving enzyme that is ubiquitous in nearly all eukaryotic cells. Expression of full-length spastin (SpastinFL-YFP; the amino acid sequence of spastin is SEQ ID NO: 1) and truncated spastin without the N-terminal 1-140 amino acids (dNSpastin-YFP) in HeLa cells removed significant amounts of cytosolic MTs, 47.45% and 42.86%, respectively, relative to YFP-transfected control cells (See FIGS. 2A to 2C). This means that both full-length spastin and truncated spastin without N-terminal 1-140 amino acids have the effect on disrupting microtubules. FIGS. 2A to 2C show the microtubule cleavage activity of artificially engineered spastin enzyme. […] The dotted line on the right indicates the periphery of the cell that expresses spastin. […] SpastinFL expressed in cells can disrupt the intracellular microtubules. Making SpastinFL be located in the cytosol, truncated spastin would also disrupt the intracellular microtubules, so it would also be located in the cytosol. […] The truncated spastin is used in the subsequent experiments. […] Compared with the YFP control group, both SpastinFL-YFP and dNSpastrin-YFP can disrupt about 40% of the microtubules. Thus the N-terminal fragment (1-140 amino acids) was dispensable for Spastin-mediated MT severing. […]

In assay [6] the test system is intracellular microtubules in HeLa cells. Nature of the assay: Live-cell imaging of MT disruption (MT filament area) in transfected HeLa cells. It counts as cell-based. The note with it: HeLa cells co-transfected with EMTB-CFP-FRB, upon rapamycin (100 nM) treatment. On the procedure:
as §2
The procedures of measurement of MT filament area are as follows. The MT filaments in living cells were labeled with EMTB-CFP-FRB and imaged in real time (RAW image). The rolling ball correction was used to remove the cytosol background from the RAW images, which was carried out with the Nikon NIS-Elements AR software. Images were processed to generate the binary MT filament pattern via the Otsu threshold and analyzed by Fiji software.
FIGS. 2D and 2E show rapidly recruiting engineered spastins onto MTs. […] The top three layers are cells that simultaneously express EMTB-CFP-FRB and dNSpastin3Q-YFP-FKBP. The lower three layers are cells that simultaneously express EMTB-CFP-FRB and dNSpastin-YFP-FKBP-C2Lact. The color bar on the right indicates the brightness value represented by the color of the FRET signal. […] Data are shown as the mean ± S.E.M. It was noteworthy that MT disruption triggered by dNSpastin3Q-YFP-FKBP upon rapamycin treatment (T½ = 11.05 ± 1.52 min) was much faster than that of dNSpastin-YFP-FKBP-C2Lact upon rapamycin treatment (T½ = 53.08 ± 8.08 min), and treatment of two common MTAs, nocodazole (10 µM; T½ = 54.02 ± 10.29 min), colchicine (500 µM; T½ = 94.28 ± 8.63 min; see FIGS. 2F to 2J). […] In FIG. 2H, HeLa cells transfected with the indicated constructs were treated with nocodazole (Noc)([…], a type of MTA), colchicine (Col)(500 µM, a type of MTA), or rapamycin (Rapa)(100 nM); scale bar, 10 µm. […] Data are shown as the mean ± S.E.M. Student’s t-tests were performed, with the resulting p-values indicated.

`CC(C)[C@@H]1CN(c2nc(Nc3cc(C(C)(C)C)[nH]n3)c3cc[nH]c3n2)CCN1` [spastazoline, reference compound]: in assay [1], the “effect of spastin inhibitor on rapamycin-mediated MT disruption” value was “swiftly reversed rapamycin-mediated acute MT disruption”. In turn, TagCFP, tagged FKBP (TagCFP-FKBP) returned a T½ of recruitment in assay [2] of 1.08 min. As for “TagCFP—FKBP: cyan fluorescent protein TagCFP-tagged FKBP [reference compound]”, in assay [3] (addition of rapamycin), the “T½ of recruitment onto TagRFP-FRB-A1AY1-bound MTs” value was 1.078 ± 0.268 min. Take “YFP—FKBP: yellow fluorescent protein-tagged FK506-binding protein [reference compound]”: in assay [4], the “T½ of translocation from cytosol onto EMTB-CFP-FRB-labeled MTs” value was 0.0955 ± 0.009 min. “dNSpastin-YFP-FKBP-C2Lact: truncated spastin tagged with YFP-FKBP and plasma membrane-binding sequence C2Lact”: the “T½ of translocation from cytosol onto EMTB-CFP-FRB-labeled MTs” value in assay [4] was found to be 0.924 ± 0.14 min. Also, in assay [5] (100 nM rapamycin 1 hr), the “MT disruption after rapamycin treatment” value is recorded as “robustly disrupted MTs”. Further, the “MT-severing activity before rapamycin treatment” value in assay [5] (0.1% DMSO) is given as “low MT-severing activities”. For the same molecule, the “T½ of MT disruption” value in assay [6] worked out at 53.08 ± 8.08 min.

B1: TagRFP—FRB—A1AY1: A1AY1 (SEQ ID NO:16), targets tyrosinated MTs, tagged with FRB and red fluorescent protein TagRFP (protein)
chain: MVSKGEELIKENMHMKLYMEGTVNNHHFKCTSEGEGKPYEGTQTMRIKVVEGGPLPFAFDILATSFMYGSRTFINHTQGIPDFFKQSFPEGFTWERVTTYEDGGVLTATQDTSLQDGCLIYNVKIRGVNFPSNGPVMQKKTLGWEANTEMLYPADGGLEGRTDMALKLVGGGHLICNFKTTYRSKKPAKNLKMPSVYYVDHRLERIKEADKETYVEQHEVAVARYCDLPSKLGHKLNLYKILWHEMWHEGLEEASRLYFGERNVKGMFEVLEPLHAMMERGPQTLKETSFNQAYGRDLMEAQEWCRKYMKSGNVKDLLQAWDLYYHVFRRISKMATVKFKYKGEEKQVDISKILSVGRYGKLIHFLYDLGGGKAGMGMVSEKDAPKELLQMLEKQKK
Turning to B1, in assay [3] (COS7 cells, immunostaining), the “targeting of construct to MT subtypes” value is “preferentially targeted to generic MTs and tyrosinated MTs but not to detyrosinated MTs”.
